This data set can be described thus: Dissociation constant, pKa of the compound.

This note sets out measurements from ChEMBL document CHEMBL5380851, “"Magic Chloro": Profound Effects of the Chlorine Atom in Drug Discovery” (J Med Chem, 2023).

The pKa is the negative logarithm of the acid dissociation constant. Read a low pKa as a group that gives up its proton readily. `Clc1cccnc1` registered a pKa of 2.81. Consider `Clc1ccncc1`, for which the pKa was found to be 3.83.

`Clc1ccccn1` [2-CHLOROPYRIDINE] displayed a pKa of 0.49.
